Test results: ChEMBL document CHEMBL4622941, “Discovery of ASP5286: A novel non-immunosuppressive cyclophilin inhibitor for the treatment of HCV” (Bioorg Med Chem Lett, 2020)
≈ marks a conversion by molar mass, not a printed value. Calls of active or inactive are those of the source. The calls are words filed in the database; no cut-off is given here. Where a SMILES comes first, the peptide text is derived from it. [ ]: non-standard residue; d: D form. MeBmt = C/C=C/C[C@@H](C)[C@@H](O)[C@H](NC)C(=O)O; NMePhg = CN[C@H](C(=O)O)c1ccccc1; NMeT = CN[C@H](C(=O)O)[C@@H](C)O; NMeL = CN[C@@H](CC(C)C)C(=O)O; NMeV = CN[C@H](C(=O)O)C(C)C; dNMeA = CN[C@H](C)C(=O)O; Sar = CNCC(=O)O

How the values were obtained:
[1] = AUC (0 to 24 hrs) in po dosed rat; assay type: ADME, organism-based; design: time < 24 hr, route oral; conditions: in vivo
[2] = Inhibition of cyclophilin in Hepatitis C virus assessed as inhibition of viral replicon replication in presence of 5% FBS by qRT-PCR analysis; design: species or system Hepacivirus hominis
[3] = Aqueous solubility of the compound at pH 6.8; assay type: physicochemical
[4] = Inhibition of cyclophilin in Hepatitis C virus assessed as inhibition of viral replicon replication in presence of 10% HSA by qRT-PCR analysis; design: species or system Hepacivirus hominis
[5] = system: Splenocyte; experiment: Immunosuppressive activity in mouse splenocytes assessed as inhibition of ConA- induced proliferation; assay type: functional, cell-based
[6] = Oral bioavailability in rat; assay type: ADME, organism-based; conditions: in vivo
[7] = Inhibition of cyclophilin in Hepatitis C virus assessed as inhibition of viral replicon replication by qRT-PCR analysis; design: species or system Hepacivirus hominis
[8] = system: Hepatitis C virus; experiment: (§1) Antiviral activity against Hepatitis C virus genotype 1b infected in humanized liver SCID-Alb/uPA chimeric mouse assessed as reduction in serum HCV RNA level at 3.75 to 30 mg/kg, po bid administered via gavage for 14 days measured after 7 days without compound administration post-last dose; assay type: functional, organism-based; conditions: Hepacivirus hominis, subtype 1b
[9] = system: Hepatitis C virus; experiment: as §1, with “14 days cotreated with peginterferon-alpha2a at 10 ug/kg, sc administered twice a week and measured after” for “14 days measured after”; assay type: functional, organism-based; conditions: Hepacivirus hominis, subtype 1b

Row | SMILES | AUC(0-t) at 24 h [1] [ng·h/mL] | EC50 [2] [µg/mL] | solubility [3] [µg/mL] | EC50 [4] [µg/mL] | bioavailability [6] [%] | EC50 [7] [µg/mL] | IC50 [5] [µg/mL] | Activity [8] | Activity [9]
1 | C/C=C/C[C@@H](C)[C@@H](O)[C@H]1C(=O)N[C@@H]([C@@H](C)O)C(=O)N(C)[C@H](C)C(=O)N(C)[C@@H]([C@@H](C)OC(C)(C)C)C(=O)N[C@@H](CC(C)C)C(=O)N(C)[C@@H](CC(C)C)C(=O)N[C@@H](C)C(=O)N[C@H](C)C(=O)N(C)[C@@H](CC(C)C)C(=O)N[C@@H](CC(C)C)C(=O)N(C)[C@@H](C(C)C)C(=O)N1C | 9450 | 0.03 | < 0.1 | 0.11 | 74 | – | 1.6 (≈ 1.25 µM) | – | –
2 | C/C=C/C[C@@H](C)[C@@H](O)[C@H]1C(=O)N[C@@H]([C@@H](C)O)C(=O)N(C)CC(=O)N(C)[C@@H]([C@@H](C)CC)C(=O)N[C@@H](CC(C)C)C(=O)N(C)[C@@H](CC(C)C)C(=O)N[C@@H](C)C(=O)N[C@H](C)C(=O)N(C)[C@@H](CC(C)C)C(=O)N[C@@H](CC(C)C)C(=O)N(C)[C@@H](C(C)C)C(=O)N1C | 111 | 0.15 | 0.2 (≈ 0.164 µM) | 2 | 2.1 | 0.15 (≈ 0.123 µM) | 0.77 (≈ 0.632 µM) | – | –
3 | C/C=C/C[C@@H](C)[C@@H](O)[C@H]1C(=O)N[C@@H]([C@@H](C)O)C(=O)N(C)CC(=O)N(C)[C@@H](c2ccccc2)C(=O)N[C@@H](CC(C)C)C(=O)N(C)[C@@H](CC(C)C)C(=O)N[C@@H](C)C(=O)N[C@H](C)C(=O)N(C)[C@@H](CC(C)C)C(=O)N[C@@H](CC(C)C)C(=O)N(C)[C@@H](C(C)C)C(=O)N1C | – | – | – | – | – | 0.12 (≈ 0.0969 µM) | 0.8 (≈ 0.646 µM) | – | –
4 | C/C=C/C[C@@H](C)[C@@H](O)[C@H]1C(=O)N[C@@H]([C@@H](C)O)C(=O)N(C)[C@H](C)C(=O)N(C)[C@@H]([C@@H](C)OC)C(=O)N[C@@H](CC(C)C)C(=O)N(C)[C@@H](CC(C)C)C(=O)N[C@@H](C)C(=O)N[C@H](C)C(=O)N(C)[C@@H](CC(C)C)C(=O)N[C@@H](CC(C)C)C(=O)N(C)[C@@H](C(C)C)C(=O)N1C (cyclo(A[dA][NMeL]L[NMeV][MeBmt]T[dNMeA][NMeT](Me)L[NMeL])) | 16100 | 0.04 | 117 (≈ 94.8 µM) | 0.061 | 36 | – | 0.97 (≈ 0.786 µM) | Active | Active
5 | C/C=C/C[C@@H](C)[C@@H](O)[C@H]1C(=O)N[C@@H]([C@@H](C)O)C(=O)N(C)[C@H](C)C(=O)N(C)[C@@H]([C@@H](C)OO)C(=O)N[C@@H](CC(C)C)C(=O)N(C)[C@@H](CC(C)C)C(=O)N[C@@H](C)C(=O)N[C@H](C)C(=O)N(C)[C@@H](CC(C)C)C(=O)N[C@@H](CC(C)C)C(=O)N(C)[C@@H](C(C)C)C(=O)N1C | 5680 | 0.061 | > 122 | 0.086 | 32 | – | 1.9 (≈ 1.54 µM) | – | –
6 | C/C=C/C[C@@H](C)[C@@H](O)[C@H]1C(=O)N[C@@H]([C@@H](C)O)C(=O)N(C)CC(=O)N(C)[C@@H](C2CCCCC2)C(=O)N[C@@H](CC(C)C)C(=O)N(C)[C@@H](CC(C)C)C(=O)N[C@@H](C)C(=O)N[C@H](C)C(=O)N(C)[C@@H](CC(C)C)C(=O)N[C@@H](CC(C)C)C(=O)N(C)[C@@H](C(C)C)C(=O)N1C | – | – | – | – | – | 0.063 (≈ 0.0506 µM) | 0.41 (≈ 0.329 µM) | – | –
7 | C/C=C/C[C@@H](C)[C@@H](O)[C@H]1C(=O)N[C@@H]([C@@H](C)O)C(=O)N(C)CC(=O)N(C)[C@@H](CC(C)C)C(=O)N[C@@H](CC(C)C)C(=O)N(C)[C@@H](CC(C)C)C(=O)N[C@@H](C)C(=O)N[C@H](C)C(=O)N(C)[C@@H](CC(C)C)C(=O)N[C@@H](CC(C)C)C(=O)N(C)[C@@H](C(C)C)C(=O)N1C (cyclo(A[dA][NMeL]L[NMeV][MeBmt]T[Sar][NMeL]L[NMeL])) | 140 | 0.096 | 6.5 (≈ 5.33 µM) | 0.37 | 4.3 | 0.096 (≈ 0.0788 µM) | 0.026 (≈ 0.0213 µM) | – | –

Further lines, with some results ahead:

Row | AUC(0-t) at 24 h [1] [ng·h/mL] | EC50 [2] [µg/mL] | solubility [3] [µg/mL] | EC50 [4] [µg/mL] | bioavailability [6] [%] | EC50 [7] [µg/mL] | SMILES | IC50 [5] [µg/mL] | Activity [8] | Activity [9]
8 | 13300 | 0.039 | < 0.1 | 0.05 | 49 | 0.039 (≈ 0.0316 µM) | C/C=C/C[C@@H](C)[C@@H](O)[C@H]1C(=O)N[C@@H]([C@@H](C)O)C(=O)N(C)[C@H](C)C(=O)N(C)[C@@H]([C@@H](C)CC)C(=O)N[C@@H](CC(C)C)C(=O)N(C)[C@@H](CC(C)C)C(=O)N[C@@H](C)C(=O)N[C@H](C)C(=O)N(C)[C@@H](CC(C)C)C(=O)N[C@@H](CC(C)C)C(=O)N(C)[C@@H](C(C)C)C(=O)N1C | 1.1 (≈ 0.892 µM) | – | –
9 | 4210 | 0.038 | – | 0.35 | 40 | 0.038 (≈ 0.0308 µM) | C/C=C/C[C@@H](C)[C@@H](O)[C@H]1C(=O)N[C@@H]([C@@H](C)O)C(=O)N(C)[C@H](C)C(=O)N(C)[C@@H](CC(C)C)C(=O)N[C@@H](CC(C)C)C(=O)N(C)[C@@H](CC(C)C)C(=O)N[C@@H](C)C(=O)N[C@H](C)C(=O)N(C)[C@@H](CC(C)C)C(=O)N[C@@H](CC(C)C)C(=O)N(C)[C@@H](C(C)C)C(=O)N1C | 0.07 (≈ 0.0568 µM) | – | –
10 | – | – | – | – | – | 0.042 (≈ 0.0334 µM) | C/C=C/C[C@@H](C)[C@@H](O)[C@H]1C(=O)N[C@@H]([C@@H](C)O)C(=O)N(C)[C@H](C)C(=O)N(C)[C@@H](C2CCCCC2)C(=O)N[C@@H](CC(C)C)C(=O)N(C)[C@@H](CC(C)C)C(=O)N[C@@H](C)C(=O)N[C@H](C)C(=O)N(C)[C@@H](CC(C)C)C(=O)N[C@@H](CC(C)C)C(=O)N(C)[C@@H](C(C)C)C(=O)N1C | 0.35 (≈ 0.278 µM) | – | –
11 | – | – | – | – | – | 0.086 (≈ 0.0683 µM) | C/C=C/C[C@@H](C)[C@@H](O)[C@H]1C(=O)N[C@@H]([C@@H](C)O)C(=O)N(C)CC(=O)N(C)[C@@H](CC2CCCCC2)C(=O)N[C@@H](CC(C)C)C(=O)N(C)[C@@H](CC(C)C)C(=O)N[C@@H](C)C(=O)N[C@H](C)C(=O)N(C)[C@@H](CC(C)C)C(=O)N[C@@H](CC(C)C)C(=O)N(C)[C@@H](C(C)C)C(=O)N1C | 0.065 (≈ 0.0516 µM) | – | –
12 | – | – | – | – | – | 0.084 (≈ 0.0671 µM) | C/C=C/C[C@@H](C)[C@@H](O)[C@H]1C(=O)N[C@@H]([C@@H](C)O)C(=O)N(C)[C@H](C)C(=O)N(C)[C@@H](c2ccccc2)C(=O)N[C@@H](CC(C)C)C(=O)N(C)[C@@H](CC(C)C)C(=O)N[C@@H](C)C(=O)N[C@H](C)C(=O)N(C)[C@@H](CC(C)C)C(=O)N[C@@H](CC(C)C)C(=O)N(C)[C@@H](C(C)C)C(=O)N1C (cyclo(A[dA][NMeL]L[NMeV][MeBmt]T[dNMeA][NMePhg]L[NMeL])) | 1.35 (≈ 1.08 µM) | – | –
